From paper PMC7115498 (European Journal of Medicinal Chemistry, 2009)
Converted amounts (≈) assume the structure as drawn. Like-named read-outs stand apart in the source and are kept apart here.

B1: UDA: reference in Table 2 (CRFK), not defined in the paper; presumably a plant lectin (protein, UniProt P11218 24-372, looked up)
Lectin/endochitinase 1: QRCGSQGGGGTCPALWCCSIWGWCGDSEPYCGRTCENKCWSGERSDHRCGAAVGNPPCGQDRCCSVHGWCGGGNDYCSGSKCQYRCSSSVRGPRVALSGNSTANSIGNVVVTEPLFDQMFSHRKDCPSQGFYSYHSFLVAAESFPAFGTIGDVATRKREVAAFLAHISQATSGERSDVENPHAWGLCHINTTTVTENDFCTSSDWPCAAGKKYSPRGPIQLTHNFNYGLAGQAIGEDLIQNPDLVEKDPIISFKTALWFWMSQHDNKPSCHDIVLNANSAANRIPNKGVIGNIISRAFGHDDFAVRSSSIGFYKRYCDMLGVSYGHDLKYWFDNTPSSEFQRIQMRVAA

How the values were obtained:
[1] = tested on: Parainfluenza-3 virus; experiment: organism not typed; format: cell-based; conditions: Vero
[2] = tested on: Coxsakie virus B4; experiment: organism not typed; format: cell-based; conditions: Vero
[3] = tested on: Reovirus-1; experiment: organism not typed; format: cell-based; conditions: Vero
[4] = Partition coefficient by stir-flask method, octanol-water system; conditions: octanol / 0.1 NaOH solution, 25 °C, UV
[5] = in vitro; conditions: human, CC50, MT-4 cells, MTT method; IIIB experiments P3.4401 and P3.4406
[6] = tested on: Herpes simplex virus-1TK- KOS ACV; experiment: organism not typed; format: cell-based; conditions: HEL
[7] = tested on: HIV-1 ROD strain; format: cell-based; conditions: for IC50: MTT method, Exp_nr P3.4402 and P3.4407
[8] = tested on: MT-4 cells; conditions: MTT method
[9] = tested on: HIV-1 IIIB strain; format: cell-based; conditions: for IC50: MTT method, Exp_nr P3.4401 and P3.4406
[10] = tested on: E. coli; experiment: Antibacterial microdilution broth susceptibility test; format: cell-based, Escherichia coli; conditions: 24 h, Gram-negative E. coli, 37 °C, no turbidity
[11] = tested on: HPV; conditions: ref Singh et al. unpublished results; cited from earlier work
[12] = tested on: Gram-positive cocci and Gram-negative bacilli; experiment: Antibacterial activity over all strains tested; format: cell-based; conditions: in vitro
[13] = in vitro; conditions: African green monkey, CC50, Vero cells, MTS assay
[14] = tested on: S. viridans; experiment: Antibacterial microdilution broth susceptibility test; format: cell-based, Streptococcus viridans; conditions: Gram-positive S. viridans; 37 °C, 24 h, no turbidity
[15] = tested on: K. pneumoniae; experiment: as above; format: cell-based, Klebsiella pneumoniae; conditions: Gram-negative K. pneumoniae; 37 °C, 24 h, no turbidity
[16] = tested on: P. miraleilis; experiment: as above; format: cell-based, Proteus mirabeilis; conditions: Gram-negative P. miraleilis; 37 °C, 24 h, no turbidity
[17] = tested on: Feline herpes virus; format: cell-based; conditions: virus O, CRFK cells, MTS assay
[18] = tested on: CRFK cells; conditions: MTS assay
[19] = tested on: Feline corona virus (FIPV); format: cell-based; conditions: virus N, CRFK cells, MTS assay
[20] = ROD experiments P3.4402 and P3.4407

Molecule	EC50 [1] [nM]	EC50 [2] [nM]	EC50 [3] [nM]	EC50 [6] [nM]	IC50 ([7]; HIV-1 ROD, MT-4 cells) [nM]	CC50 [8, 20] [nM]	also measured
Nc1ncnc2c1ncn2C[C@H](O)CO [(S)-DHPA, reference compound]	> 250000	> 250000	> 250000				
COc1cc(/C=C/C(=O)CC(=O)/C=C/c2ccc(OC(=O)[C@H](Cc3ccccc3)NC(=O)[C@@H](N)Cc3c[nH]c4ccccc34)c(OC)c2)ccc1OC(=O)[C@H](Cc1ccccc1)NC(=O)[C@@H](N)Cc1c[nH]c2ccccc12 [Compound 2, 1,7-Bis-[(4,4-di-O-tryptophanylphenylalanine)3-methoxyphenyl]-1,6-heptadiene-3,5-dione]	> 38	> 19	> 19	> 38	> 103	103	P (partition coefficient), stir-flask method [4]: 5.50 × 10^2; CC50 [5]: 94 nM; SI (Selectivity index: CC50/IC50 ratio) [7]: <1; SI (Selectivity index: CC50/IC50 ratio) [9]: <1; IC50 ([9]; HIV-1 IIIB, MT-4 cells): > 93 nM
CCCCCCCCCC(=O)Oc1ccc(/C=C/C(=O)CC(=O)/C=C/c2ccc(OC(=O)CCCCCCCCC)c(OC)c2)cc1OC [Compound 3, 1,7-Bis-[(4,4-di-O-decanoyl)3-methoxyphenyl]-1,6-heptadiene-3,5-dione]							P (partition coefficient), stir-flask method [4]: 1.69 × 10^8; MIC ([10]; Escherichia coli): 0.369 µM (≈ 0.25 µg/mL)
CCCCCCCCCCCCCCCC(=O)Oc1ccc(/C=C/C(=O)CC(=O)/C=C/c2ccc(OC(=O)CCCCCCCCCCCCCCC)c(OC)c2)cc1OC [Compound 4, 1,7-Bis-[(4,4-di-O-pamitoyl)3-methoxyphenyl]-1,6-heptadiene-3,5-dione]							MIC ([10]; Escherichia coli): 0.591 µM (≈ 0.5 µg/mL)
COc1cc(/C=C/C(=O)CC(=O)/C=C/c2ccc(OC(=O)CCC(NC(=O)c3ccc(NCc4cnc5nc(N)[nH]c(=O)c5n4)cc3)C(=O)O)c(OC)c2)ccc1OC(=O)CCC(NC(=O)c1ccc(NCc2cnc3nc(N)[nH]c(=O)c3n2)cc1)C(=O)O (stereo not drawn) [Compound 6, 1,7-Bis-[(4,4-di-O-bis-(γ,γ)-folyl)3-methoxyphenyl]-1,6-heptadiene-3,5-dione]	> 82	> 82	> 82	> 82	> 50	50	Activity against HPV causing cervical cancer [11]: very active; IC50 ([9]; HIV-1 IIIB, MT-4 cells): > 46 nM
COc1cc(/C=C/C(=O)C(CCOC(=O)CCC(NC(=O)c2ccc(NCc3cnc4nc(N)[nH]c(=O)c4n3)cc2)C(=O)O)C(=O)/C=C/c2ccc(O)c(OC)c2)ccc1O (stereo not drawn) [Compound 8, 1,7-Bis-[(4-hydroxy-3-methoxyphenyl)]-1,6-heptadiene-C^4-ethyl-O-folyl-3,5-dione]	> 11	> 11	> 11	> 11	> 62	62	
COc1cc(/C=C/C(=O)CC(=O)/C=C/c2ccc(OCCOC(=O)CCC(NC(=O)c3ccc(NCc4cnc5nc(N)[nH]c(=O)c5n4)cc3)C(=O)O)c(OC)c2)ccc1O (stereo not drawn) [Compound 10, 1-(4-Hydroxy-3-methoxyphenyl)-7-(4-O-ethyl-O-folyl-3-methoxyphenyl)-1,6-heptadiene-3,5-dione]	> 119	> 119	> 119	> 119	> 88	88	SI (Selectivity index: CC50/IC50 ratio) ([7]; HIV-1 ROD, MT-4 cells): <1; CC50 ([8]; IIIB experiments P3.4401 and P3.4406): 58 nM; SI (Selectivity index: CC50/IC50 ratio) ([9]; HIV-1 IIIB, MT-4 cells): <1; IC50 ([9]; HIV-1 IIIB, MT-4 cells): > 58 nM
COc1cc(/C=C/C(=O)CC(=O)/C=C/c2ccc(O)c(OC)c2)ccc1O [Curcumin, 1,7-bis(4-hydroxy-3-methoxyphenyl)-1,6-heptadiene-3,5-dione, reference compound]	> 10	> 10	> 10				P (partition coefficient), stir-flask method [4]: 1.70 × 10^2; MIC range over all strains [12]: 1.23 to 2.47 µM
NC(=O)c1ncn([C@@H]2O[C@H](CO)[C@@H](O)[C@H]2O)n1 [Ribavirin]		> 250000	250000				CC50 ([13]; column J (Reovirus-1)): > 250000 nM; CC50 ([13]; column K (Sindbis virus)): > 250000 nM; CC50 ([13]; column L (Coxsakie virus B4)): > 250000 nM; CC50 ([13]; column M (Punta toro virus)): > 250000 nM
Gentamycin sulfate							MIC [10]: >1.73 µM; MIC [14]: >1.73 µM; MIC [15]: >1.73 µM; MIC [16]: >1.73 µM
B1							EC50 [17]: 2900 nM; CC50 ([18]; column N (Feline corona virus FIPV)): > 100000 nM; CC50 ([18]; column O (Feline herpes virus)): > 100000 nM; EC50 [19]: 1300 nM
